Results reported in patent US20090036499A1, “FLY CONTROL METHOD” (priority 2007, published 2009).

System: Adult L. serricata (blowflies)
Assay: Test A: adult blowflies on blood agar containing test compound, scored by number of dead flies
Type: in vivo
Conditions: 4 flies in test
Method: • Adult L. serricata (blowflies): Adult flies are placed on beds of blood agar (in individual test wells; 4 flies per well) in which test compound, (3-bromo-N-[4-chloro-2-methyl-6-[(methylamino)carbonyl]phenyl]-1-(3-chloro-2-pyridinyl)-1H-pyrazole-5-carboxamide), was dissolved/suspended prior to hardening of agar. Flies can take up test compound by both ingestion and contact. Assays are scored by number of dead flies at 2 hours, 4 hours, and 24 hours.

| SMILES | Number dead flies at 2 hours (1 ppm in blood agar) | Number dead flies at 4 hours (1 ppm in blood agar) | Number dead flies at 24 hours (1 ppm in blood agar) | Number dead flies at 2 hours (10 ppm in blood agar) | Number dead flies at 4 hours (10 ppm in blood agar) | Number dead flies at 24 hours (10 ppm in blood agar) | Number dead flies at 2 hours (25 ppm in blood agar) | Number dead flies at 4 hours (25 ppm in blood agar) | Number dead flies at 24 hours (25 ppm in blood agar) | Number dead flies at 2 hours (50 ppm in blood agar) | Number dead flies at 4 hours (50 ppm in blood agar) | Number dead flies at 24 hours (50 ppm in blood agar) | Number dead flies at 2 hours (100 ppm in blood agar) | Number dead flies at 4 hours (100 ppm in blood agar) | Number dead flies at 24 hours (100 ppm in blood agar) |
| --- | --- | --- | --- | --- | --- | --- | --- | --- | --- | --- | --- | --- | --- | --- | --- |
| CNC(=O)c1cc(Cl)cc(C)c1NC(=O)c1cc(Br)nn1-c1ncccc1Cl [Test Compound, 3-bromo-N-[4-chloro-2-methyl-6-[(methylamino)carbonyl]phenyl]-1-(3-chloro-2-pyridinyl)-1H-pyrazole-5-carboxamide] | 0 | 0 | 0 | 0 | 0 | 1 | 0 | 0 | 2 | 0 | 0 | 2 | 0 | 0 | 3 |
| CCOP(=S)(OCC)Oc1nc(Cl)c(Cl)cc1Cl [Chloropyriphos, O,O-diethyl-O-3,5,6-trichloro-2-pyridyl-phosphorothioate] | 0 | 1 | 4 | 1 | 4 | 4 | 3 | 4 | 4 | 4 | 4 | 4 | 4 | 4 | 4 |
